# Measured values reported in US9623021B2, “Nuclear receptor binding agents” (GTX, Inc., priority 2007, dated 2017).
# Entries after “also recorded” stand apart in the source; their conditions may differ.
# Key:
# [1] = test system: ARPE-19 cells; test: Fluorescent detection of intracellular ROS in ARPE-19 cells (tBH oxidative stress); conditions: 150 μM tBH, FIG. 20B
# [2] = test system: THP-1 macrophage cell adhesion to bEND-3 endothelial cells; test: Macrophage adhesion assay (LPS induced THP-1 adhesion to bEND-3 endothelial cells); format: cell-based; conditions: FIG. 13
# Method: To determine the anti-inflammatory effects of ER-β NRBAs in vitro, a macrophage adhesion assay was performed. Macrophages adhere to endothelial cells due to elevated levels of pro-inflammatory cytokines. This principle was used in this assay to determine the effect of one of the ER-β NRBAs on bacterial lipopolysaccharide (LPS) induced THP-1 macrophage cell adhesion to bEND-3 endothelial cells.
# [3] = biological target: ERβ ligand binding domain (Homo sapiens (Human), UniProt Q92731); test: Competitive [3H]-estradiol radioligand binding, ERβ (Example 21); conditions: ratio between the binding constants of ER-α and ER-β
# Sequence of ERβ ligand binding domain (Q92731 264-498, species assumed): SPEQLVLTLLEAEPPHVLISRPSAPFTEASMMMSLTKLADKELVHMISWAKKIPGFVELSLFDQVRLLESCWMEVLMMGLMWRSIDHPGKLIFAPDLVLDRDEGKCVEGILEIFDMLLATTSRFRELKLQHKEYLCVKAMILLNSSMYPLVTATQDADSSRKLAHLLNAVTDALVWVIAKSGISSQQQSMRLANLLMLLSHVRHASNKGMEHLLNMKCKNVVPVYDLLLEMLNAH
# Method: (§1) ER binding affinity was determined via one of the following methods:
# (§2) Briefly, the incubation mixture was filtered through a high affinity protein binding filter, and washed several times to remove any unbound radioactivity. The filter plate was air dried and sealed on the bottom.
# (§3) Following incubation, plates were harvested onto GF/B filters and radioactivity was measured with a TopCount NXT (PerkinElmer). Nonspecific binding was subtracted from total binding to yield specific binding.
# [4] = biological target: ERα ligand binding domain (Homo sapiens (Human), UniProt P03372); test: Competitive [3H]-estradiol radioligand binding, ERα (Example 21)
# Sequence of ERα ligand binding domain (P03372 whole entry, looked up, species assumed, the tested form may be a part): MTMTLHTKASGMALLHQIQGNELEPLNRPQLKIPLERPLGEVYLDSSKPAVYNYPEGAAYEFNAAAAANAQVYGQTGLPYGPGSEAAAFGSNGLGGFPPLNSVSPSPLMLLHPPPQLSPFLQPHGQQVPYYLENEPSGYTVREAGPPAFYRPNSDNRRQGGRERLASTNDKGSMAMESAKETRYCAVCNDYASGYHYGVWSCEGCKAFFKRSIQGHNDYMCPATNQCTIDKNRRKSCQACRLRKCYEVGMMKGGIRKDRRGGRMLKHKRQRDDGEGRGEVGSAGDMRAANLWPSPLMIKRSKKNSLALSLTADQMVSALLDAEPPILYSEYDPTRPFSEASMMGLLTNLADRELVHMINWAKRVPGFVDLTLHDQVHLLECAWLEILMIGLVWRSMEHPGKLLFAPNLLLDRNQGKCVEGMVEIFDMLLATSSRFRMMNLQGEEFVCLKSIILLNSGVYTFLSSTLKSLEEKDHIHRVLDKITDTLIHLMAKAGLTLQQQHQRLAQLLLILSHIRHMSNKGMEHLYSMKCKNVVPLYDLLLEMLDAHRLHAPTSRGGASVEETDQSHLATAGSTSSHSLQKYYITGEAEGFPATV
# Method: as §1, §2, §3
# [5] = biological target: T1, ER-α (Rattus norvegicus (Rat), UniProt P06211); format: cell-based; conditions: 100 nM NRBA compared to 1 nM estradiol
# Method: COS or 293 cells were plated in DME without phenol red+10% cs FBS at 90,000 cells per well in 24 well plates, and were transfected with 0.25 μg of the vector “ERE-LUC”, where a firefly luciferase gene was driven by two estrogen responsive elements and 0.02 μg of the control CMV-LUC, Renilla where a luciferase gene was driven by a CMV promoter. […] All the receptors were cloned from rat tissue into the PCR3.1 vector backbone. Twenty four hours post transfection, cells were treated with compounds of this invention, estrogen, DHT, and other NRBAs or combinations thereof. Cells were harvested 48 hrs after transfection, and assayed for firefly and Renilla luciferase activity.
# [6] = biological target: T1, ER-α; test: Transient transfection and reporter gene assay, ER-α, HEK-293 cells (Example 22A); format: cell-based; conditions: ERE-LUC
# Method: Human estrogen receptors (ER-α and ER-β) were cloned from prostate cDNA into a pCR3.1 plasmid vector backbone. PGC-1 was cloned into mammalian two hybrid vector pACT. ER-β H475 was mutated to alanine using site-directed mutagenesis. Sequencing was performed to determine the absence of any non specific mutations. SHP promoter (−572 to +10) (26) was cloned into pGL3 basic LUC reporter vector and human FXR was cloned into pCR3.1. HEK-293 cells were plated at 100,000 cells per well of a 24 well plate in […] (DMEM)+5% charcoal-stripped fetal bovine serum (csFBS). The cells were transfected using Lipofectamine (Invitrogen, Carlsbad, Calif.) with 0.25 μg ERE-LUC, 0.02 μg CMV-LUC (renilla luciferase) and 12.5 ng of rat ER-α or 25 ng rat ER-β. […] Luciferase assays were performed 48 hrs after transfection.
# To determine if the selectivity in ER binding also translated into ER-β-selective activity, transient transactivation assays were performed in HEK-293 cells transfected with plasmids encoding ER-α or ER-β and ERE-LUC. The cells were treated with varying concentrations of the ligands and their EC50 values were determined.
# [7] = test system: PPAR-α; test: PPAR-α transactivation (PPRE-LUC) in HEK-293 cells co-transfected with ER-β; format: cell-based; conditions: FIG. 12A right panel
# Method: (§4) FIG. 12 depict the effect of ER-β ligand on PPAR-γ function through ligand binding domain (LBD). (A). HEK-293 cells were transfected with 0.25 μg PPRE-LUC, 5 ng CMV-renilla LUC and the indicated receptors (PPAR-γ and ER-β for the left panel and PPAR-α and ER-β for the right panel). The cells were treated 24 hrs after transfection with the indicated ligands and harvested 48 hrs after transfection and firefly luciferase activity was measured and normalized to renilla luciferase. (B). H475 in ER-β LBD is important for its function. H475 in ER-β LBD was mutated to alanine (A) using a site directed mutagenesis kit. Transactivation assay was performed as described in panel A in HEK-293 cells with a titration of ER-β ligands in wild type or ER-β H475A. (C). […] The cells were treated 24 hrs after transfection with the indicated ligands and harvested 48 hrs after transfection and firefly luciferase activity was measured and normalized to renilla luciferase. […] The cells were treated 24 hrs after transfection with the indicated ligands and harvested 48 hrs after transfection and firefly luciferase activity was measured and normalized to renilla luciferase. […] The cells were treated 24 hrs after transfection with the indicated ligands and harvested 48 hrs after transfection and firefly luciferase activity was measured and normalized to renilla luciferase. […]
# [8] = test system: SHP promoter; test: SHP promoter-luciferase in HEK-293 cells transfected with FXR and ER-β; format: cell-based; conditions: FXR and ER-β plasmids, FIG. 12E right panel
# Method: FIG. 12 depict the effect of ER-β ligand on PPAR-γ function through ligand binding domain (LBD). (A). HEK-293 cells were transfected with 0.25 μg PPRE-LUC, 5 ng CMV-renilla LUC and the indicated receptors (PPAR-γ and ER-β for the left panel and PPAR-α and ER-β for the right panel). The cells were treated 24 hrs after transfection with the indicated ligands and harvested 48 hrs after transfection and firefly luciferase activity was measured and normalized to renilla luciferase. (B). H475 in ER-β LBD is important for its function. H475 in ER-β LBD was mutated to alanine (A) using a site directed mutagenesis kit. Transactivation assay was performed as described in panel A in HEK-293 cells with a titration of ER-β ligands in wild type or ER-β H475A. (C). […] HEK-293 cells were transfected with 0.25 μg PPRE-LUC, 5 ng CMV-renilla LUC and 50 ng of the indicated receptors (PPAR-γ or PPAR-γ and wild type ER-β or PPAR-γ and ER-β H475A). The cells were treated 24 hrs after transfection with the indicated ligands and harvested 48 hrs after transfection and firefly luciferase activity was measured and normalized to renilla luciferase. (D). […] HepG2 cells were transfected with 0.25 μg PPRE-LUC, 5 ng CMV-renilla LUC, 0.5 μg PGC-1 or vector backbone and 100 ng of the indicated receptors (PPAR-γ or PPAR-γ and wild type ER-β or PPAR-γ and ER-β H475A for top panels and PPAR-α or PPAR-α and ER-β for bottom panel). The cells were treated 24 hrs after transfection with the indicated ligands and harvested 48 hrs after transfection and firefly luciferase activity was measured and normalized to renilla luciferase. (E). SHP-1 is an ER-β specific target gene. HEK-293 cells were transfected with 0.25 μg SHP-LUC, 5 ng CMV-renilla LUC and 50 ng of the indicated receptors (FXR and ER-α for the left panel and FXR and ER-β for the right panel). The cells were treated 24 hrs after transfection with the indicated ligands and harvested 48 hrs after transfection and firefly luciferase activity was measured and normalized to renilla luciferase. […]
# [9] = test system: PPAR-γ; test: PPAR-γ transactivation (PPRE-LUC) in HEK-293 cells co-transfected with ER-β; format: cell-based; conditions: FIG. 12A left panel
# Method: as §4
# [10] = test system: high fat diet fed C57BL6 mice; test: High fat diet induced obesity model, prevention studies (studies 1 and 2)
# Method: Study A: C57BL6 male mice of 4 weeks of age were divided into different groups and were fed with a normal or high fat diet (Harlan, Ind.).
# For the treatment study (study 3), the animals were maintained on the irrespective diets for 6 weeks and then treated daily as indicated for an additional 18 weeks. Biweekly body weights and food consumption were measured. The animals were sacrificed at the end of each study and blood and tissues were collected for RNA isolation, histology and protein estimation.
# Cholesterol and leptin concentrations were measured in serum using ELISA-based methods.
# Histology was performed on cryosections and stained with oil 0 red.
# Oral glucose tolerance tests (OGTT) were performed on 16-h fasted mice. Mice were given 150 mg glucose by oral gavage through a gastric tube.
# Six week old C57BL/6 mice were randomized, based on body weight, into three study groups as shown in the Study Parameters Table below.
# The mice were treated for 12 weeks. Twice weekly, the body weight and feed consumption were measured.
# A glucose tolerance test was also performed at the completion of the study by administering 150 mg glucose orally to the mice and measuring blood glucose levels at 0, 15, 30 and 60 minutes post glucose administration.
# At sacrifice, the mice organ weights were measured and collected for histology, gene expression and protein expressions. Blood was collected for serum marker determination (cholesterol, glucose, leptin).
# Dual energy X-ray absorptiometry (DEXA) was performed to measure the body composition in Study 1.
# An MRI scan was performed at the beginning of the study, after 6 weeks and at the completion of the study.
# [11] = test system: Ishikawa endometrial cells; test: Ishikawa growth assay (alkaline phosphatase); format: cell-based
# Method: Ishikawa cells were plated at 15,000 cells/well in 24 well plates in DME:F12 (1:1)+5% csFBS w/o phenol red. The cells were maintained in this medium at 37° C. for 3 days. Medium was changed immediately prior to drug treatment for an additional 72 hrs. After 72 hrs, the cells were fixed with formalin and the amount of alkaline phosphatase (ALP) measured by para-nitrophenyl phosphate method.
# This effect is one potential concern in the development of ER-α SERMs.
# [12] = test system: SHP promoter; test: SHP promoter-luciferase in HEK-293 cells transfected with FXR and ER-α; format: cell-based; conditions: FIG. 12E left panel
# Method: as §4
# [13] = Brown Adipose Tissue, vs high fat diet vehicle, >2-fold, p<0.01
# [14] = Liver, vs high fat diet vehicle, >2-fold, p<0.01
# [15] = White Adipose Tissue, vs high fat diet vehicle, >2-fold, p<0.01
# [16] = high fat diet, 30 mg/kg/day s.c., 12 weeks
# [17] = high fat diet, 30 mg/kg/day s.c., 12 weeks, FIG. 7
# [18] = high fat diet, 30 mg/kg/day s.c., 12 weeks, study 1
# [19] = high fat diet, 30 mg/kg/day s.c., Study 2
smiles,measurement,setting,value
"O=c1c2c(O)cc(O)cc2c(Cl)cn1-c1ccc(O)cc1 [Compound 12y, 4-chloro-6,8-dihydroxy-2-(4-hydroxyphenyl)isoquinolin-1(2H)-one]",prevention of ROS formation / oxidative damage,[1],protected ARPE-19 cells from oxidative damage
same,adhesion of 3H labeled THP-1 cells to bEND-3 cells,[2],significantly inhibited the adhesion
same,Ki Ratio (ER-α/ER-β),[3],11
same,Ki,[4],36 nM
"N#Cc1cn(-c2ccc(O)cc2)c(=O)c2c(O)cc(O)cc12 [Compound 14m, 6,8-dihydroxy-2-(4-hydroxyphenyl)-1-oxo-1,2-dihydroisoquinoline-4-carbonitrile]","Estradiol activity at 100 nM, ER-α",[5],49%
same,function at ER-α in transactivation,[6],agonists
same,WY14643 induced PPAR-α transactivation,[7],did not affect
same,SHP activity,[8],neither of the ligands activated SHP
same,troglitazone-induced PPAR-γ activity,[9],partially inhibited
same,prevention of body weight increase caused by the high fat diet,"[10]; 30 mg/kg/day s.c., 12 weeks, Study 2",more than 50%
same,"high fat diet increase in expression of genes that promote lipogenesis (LPL, FASN, SREBP-1, PLTP, Dhcr24)",[10]; BAT and WAT,reversed
same,Ddit3 (DNA damage inducible transcript III) gene expression,[10]; [13],Decrease
same,Dhcr24 (dehydrocholesterol reductase) gene expression,[10]; [13],Decreased
same,ER-β (Estrogen receptor β) gene expression,[10]; [13],Increased
same,GPx-3 (glutathione peroxidase) gene expression,[10]; [13],Increase
same,LPL (lipoprotein lipase) gene expression,[10]; [13],Decrease
same,PLTP (phospholipid transfer protein) gene expression,[10]; [13],Decrease
same,UCP-1 (uncoupled protein-1) gene expression,[10]; [13],Increased
same,CIDEA (Cell death inducing DNA fragmentation factor) gene expression,[10]; [14],Decrease
same,GPx-3 (glutathione peroxidase) gene expression,[10]; [14],Increase
same,Ddit3 (DNA damage inducible transcript III) gene expression,[10]; [15],Decrease
same,FASN (fatty acid synthase) gene expression,[10]; [15],Decrease
same,LPL (lipoprotein lipase) gene expression,[10]; [15],Decrease
same,SREBP1 (Sterol regulatory element binding protein 1) gene expression,[10]; [15],Decrease
same,"bone mineral content (BMC), DEXA",[10]; [16],prevented the loss in BMC
same,serum cholesterol increase by high fat diet,[10]; [16],significantly reversed
same,serum leptin increase by high fat diet,[10]; [16],significantly reversed
same,white adipose tissue (WAT) weight,"[10]; high fat diet, 30 mg/kg/day s.c., 12 weeks, FIG. 6B",significantly reduced
same,gastrocnemius muscle weight,[10]; [17],increased gastrocnemius muscle weight
same,white adipose tissue (WAT) weight,[10]; [17],prevented the increase in the WAT weight; also recorded: comparably decreased WAT weight
same,body fat (DEXA),[10]; [18],suppressing fat mass formation
same,reduction in body weight compared to high fat diet and vehicle,[10]; [18],greater than 85%
same,weight gained more than normal diet-fed controls,[10]; [18],5%
same,serum macrophage inflammatory protein-1β (MIP-1β) increase by high fat diet,"[10]; high fat diet, 30 mg/kg/day s.c., FIG. 6F",completely reversed
same,accumulation of fat in the liver (oil red staining),"[10]; high fat diet, 30 mg/kg/day s.c., FIG. 8",attenuated the accumulation of lipid droplets in the liver; also recorded: completely prevented the accumulation of fat in the liver
same,fat mass (MRI),[10]; [19],reduce fat mass
same,lean mass (MRI),[10]; [19],increase muscle mass; also recorded: increased the lean mass
same,prevention of the increase in body fat (MRI),[10]; [19],more than 50%
same,total caloric intake (feed consumption),"[10]; high fat diet, 30 mg/kg/day s.c., study 1",did not affect total caloric intake
same,"blood glucose levels, glucose tolerance test","[10]; high fat diet, 30 mg/kg/day s.c., 150 mg glucose orally",not statistically different from the normal diet controls
same,testes weights,"[10]; high fat diet, 12 weeks, FIG. 9A",not altered
same,serum testosterone levels,"[10]; high fat diet, 12 weeks, FIG. 9B",did not affect; also recorded: not altered
same,serum follicle stimulating hormone (FSH),"[10]; high fat diet, 12 weeks, FIG. 9C",did not affect; also recorded: not altered
same,Ishikawa cell proliferation,[11]; FIG. 3C,weakly induce
same,concentration at which proliferation of Ishikawa cells was induced,"[11]; highest concentration tested, ALP assay, 72 hrs",1 µM
"CCCc1c(-c2ccc(O)cc2)nn(-c2ccc(O)cc2)c1-c1ccc(O)cc1 [PPT, 1,3,5-tris(4-hydroxyphenyl)-4-propyl-1H-pyrazole]",SHP activity,[12],increased SHP activity
